For six compounds, GI50, IC50 and Ratio IC50 results are on record in ChEMBL document CHEMBL4680193, “Isoindoline scaffold-based dual inhibitors of HDAC6 and HSP90 suppressing the growth of lung cancer in vitro and in vivo” (Eur J Med Chem, 2020).

Usually GI50 stands for the concentration that inhibits growth by half. Lower therefore signals greater sensitivity of the cells. The term IC50 denotes the midpoint of a concentration-inhibition curve.

Each structure is given as a SMILES string.

Chain of Histone deacetylase 3 (O15379 whole entry): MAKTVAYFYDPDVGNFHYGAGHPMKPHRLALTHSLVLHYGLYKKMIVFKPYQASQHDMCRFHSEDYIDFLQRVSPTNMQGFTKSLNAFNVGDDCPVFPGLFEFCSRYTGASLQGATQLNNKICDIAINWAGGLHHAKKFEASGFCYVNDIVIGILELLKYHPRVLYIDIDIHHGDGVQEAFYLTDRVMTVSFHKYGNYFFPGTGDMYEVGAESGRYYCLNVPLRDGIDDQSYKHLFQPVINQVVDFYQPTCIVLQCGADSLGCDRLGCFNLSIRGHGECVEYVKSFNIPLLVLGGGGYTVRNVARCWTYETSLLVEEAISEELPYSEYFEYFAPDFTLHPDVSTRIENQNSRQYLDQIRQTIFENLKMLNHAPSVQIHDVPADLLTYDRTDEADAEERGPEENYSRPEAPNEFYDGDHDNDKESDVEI

The test system of one experiment is A549. Nature of the experiment: Growth inhibition of human A549 cells incubated for 48 hrs by SRB assay. The class given is functional.
Conditions: not given
`O=C(CCCCCCC(=O)Nc1ccccc1)NO` [VORINOSTAT] gave a concentration for 50% growth inhibition (GI50) of 1020 nM.

Still in this experiment, the particulars now being: Homo sapiens, A549.
With `CC(C)c1cc(C(=O)N2Cc3ccc(NC(=O)CCCCCCCC(=O)NO)cc3C2)c(O)cc1O`, the GI50 came out at 235000 nM.

`CC(C)c1cc(C(=O)N2Cc3ccc(NC(=O)CCCCCCC(=O)NO)cc3C2)c(O)cc1O` came in with a GI50 of 2920 nM.

For the compound `COc1c(C)cnc(Cn2cnc3c(Cl)nc(N)nc32)c1C` [BIIB021], halving of growth (GI50) required 330 nM.

Compound `CC(C)c1cc(C(=O)N2Cc3ccc(NC(=O)CCCCC(=O)NO)cc3C2)c(O)cc1O` came in with a GI50 of 870 nM.

Compound `CC(C)c1cc(C(=O)N2Cc3ccc(NC(=O)CCCCCC(=O)NO)cc3C2)c(O)cc1O` came in with a 50% growth inhibitory concentration (GI50) of 2220 nM.

The next experiment concerns NCI-H1975. Nature of the experiment: cells. The class given is functional. Conditions: Homo sapiens, time 48 hrs.
For the compound `CC(C)c1cc(C(=O)N2Cc3ccc(NC(=O)CCCCCCCC(=O)NO)cc3C2)c(O)cc1O`, the GI50 amounted to 1070 nM.

The compound `CC(C)c1cc(C(=O)N2Cc3ccc(NC(=O)CCCCCCC(=O)NO)cc3C2)c(O)cc1O` showed a GI50 of 434000 nM.

In the case of `COc1c(C)cnc(Cn2cnc3c(Cl)nc(N)nc32)c1C` [BIIB021], the concentration for 50% growth inhibition (GI50) was 200 nM.

The compound `CC(C)c1cc(C(=O)N2Cc3ccc(NC(=O)CCCCC(=O)NO)cc3C2)c(O)cc1O` registered a concentration for 50% growth inhibition (GI50) of 1640 nM.

With `CC(C)c1cc(C(=O)N2Cc3ccc(NC(=O)CCCCCC(=O)NO)cc3C2)c(O)cc1O`, the GI50 was determined as 680 nM.

The next experiment addresses Heat shock protein HSP 90-alpha (Homo sapiens, UniProt P07900). Nature of the experiment: Inhibition of HSP90a (unknown origin).
Conditions: not given
As for `O=C(CCCCCCC(=O)Nc1ccccc1)NO` [VORINOSTAT], the concentration for half-maximal inhibition (IC50) is more than 1000 nM.

In the case of `CC(C)c1cc(C(=O)N2Cc3ccc(NC(=O)CCCCCCCC(=O)NO)cc3C2)c(O)cc1O`, the half-inhibitory concentration (IC50) is 422 nM.

As to `CC(C)c1cc(C(=O)N2Cc3ccc(NC(=O)CCCCCCC(=O)NO)cc3C2)c(O)cc1O`, the IC50 amounted to 43.9 nM.

As to `CC(C)c1cc(C(=O)N2Cc3ccc(NC(=O)CCCCC(=O)NO)cc3C2)c(O)cc1O`, the half-maximal inhibitory concentration (IC50) turned out to be 109 nM.

In turn, `CC(C)c1cc(C(=O)N2Cc3ccc(NC(=O)CCCCCC(=O)NO)cc3C2)c(O)cc1O` yielded a half-maximal inhibitory concentration (IC50) of 43.9 nM.

The next experiment has as its target Histone deacetylase.
Assay: not given
It counts as tissue-based, Homo sapiens. The conditions noted are these: hela.
Turning to `CC(C)c1cc(C(=O)N2Cc3ccc(NC(=O)CCCCCCCC(=O)NO)cc3C2)c(O)cc1O`, the IC50 is 198.9 nM.

As to `CC(C)c1cc(C(=O)N2Cc3ccc(NC(=O)CCCCCCC(=O)NO)cc3C2)c(O)cc1O`, the half-inhibitory concentration (IC50) is on record as 1683 nM.

Turning to `COc1c(C)cnc(Cn2cnc3c(Cl)nc(N)nc32)c1C` [BIIB021], the IC50 was more than 1000 nM.

In the case of `CC(C)c1cc(C(=O)N2Cc3ccc(NC(=O)CCCCC(=O)NO)cc3C2)c(O)cc1O`, the IC50 is reported as more than 1000 nM.

In the case of `CC(C)c1cc(C(=O)N2Cc3ccc(NC(=O)CCCCCC(=O)NO)cc3C2)c(O)cc1O`, the IC50 was found to be 521.4 nM.

In a further experiment the target is Histone deacetylase 1 (Homo sapiens, UniProt Q13547). Nature of the experiment: Inhibition of recombinant human C-terminal FLAG-His-tagged HDAC1 (1 to 482 residues) expressed in Sf21 cells using RHK-K(Ac)-AMC as substrate incubated for 60 mins by fluorimetry analysis.
Chain of Histone deacetylase 1 (Q13547 whole entry, the tested form may be a part): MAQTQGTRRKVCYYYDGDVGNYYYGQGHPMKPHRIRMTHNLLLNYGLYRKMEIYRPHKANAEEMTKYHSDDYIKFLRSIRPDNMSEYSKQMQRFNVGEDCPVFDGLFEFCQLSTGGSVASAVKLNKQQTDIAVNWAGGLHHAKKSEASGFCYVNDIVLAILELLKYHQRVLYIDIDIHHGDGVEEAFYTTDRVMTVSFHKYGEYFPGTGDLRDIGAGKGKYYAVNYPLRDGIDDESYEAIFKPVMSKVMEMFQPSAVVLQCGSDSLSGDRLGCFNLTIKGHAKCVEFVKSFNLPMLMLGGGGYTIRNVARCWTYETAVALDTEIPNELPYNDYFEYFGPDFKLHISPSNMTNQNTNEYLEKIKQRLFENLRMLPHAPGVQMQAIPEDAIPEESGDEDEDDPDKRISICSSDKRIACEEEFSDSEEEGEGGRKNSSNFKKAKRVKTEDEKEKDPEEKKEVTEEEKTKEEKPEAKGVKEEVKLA
Conditions: not given
As for `CC(C)c1cc(C(=O)N2Cc3ccc(NC(=O)CCCCCCCC(=O)NO)cc3C2)c(O)cc1O`, the half-maximal inhibitory concentration (IC50) stood at 1080 nM.

Take `CC(C)c1cc(C(=O)N2Cc3ccc(NC(=O)CCCCCCC(=O)NO)cc3C2)c(O)cc1O`: the half-inhibitory concentration (IC50) came to 554 nM.

Take `CC(C)c1cc(C(=O)N2Cc3ccc(NC(=O)CCCCC(=O)NO)cc3C2)c(O)cc1O`: the 50% inhibitory concentration (IC50) came out at 6880 nM.

As to `CC(C)c1cc(C(=O)N2Cc3ccc(NC(=O)CCCCCC(=O)NO)cc3C2)c(O)cc1O`, the IC50 was 3810 nM.

The next experiment addresses Histone deacetylase 3 (Homo sapiens, UniProt O15379).
Assay: not given
Conditions: not given
`CC(C)c1cc(C(=O)N2Cc3ccc(NC(=O)CCCCCCCC(=O)NO)cc3C2)c(O)cc1O` yielded an IC50 of 494 nM.

The compound `CC(C)c1cc(C(=O)N2Cc3ccc(NC(=O)CCCCCCC(=O)NO)cc3C2)c(O)cc1O` yielded a 50% inhibitory concentration (IC50) of 388 nM.

The compound `CC(C)c1cc(C(=O)N2Cc3ccc(NC(=O)CCCCC(=O)NO)cc3C2)c(O)cc1O` had an IC50 of 2810 nM.

Take `CC(C)c1cc(C(=O)N2Cc3ccc(NC(=O)CCCCCC(=O)NO)cc3C2)c(O)cc1O`: the IC50 worked out at 2210 nM.

Another experiment has as its target T1, Protein deacetylase HDAC6 (Homo sapiens, UniProt Q9UBN7).
T1 sequence (Q9UBN7 whole entry): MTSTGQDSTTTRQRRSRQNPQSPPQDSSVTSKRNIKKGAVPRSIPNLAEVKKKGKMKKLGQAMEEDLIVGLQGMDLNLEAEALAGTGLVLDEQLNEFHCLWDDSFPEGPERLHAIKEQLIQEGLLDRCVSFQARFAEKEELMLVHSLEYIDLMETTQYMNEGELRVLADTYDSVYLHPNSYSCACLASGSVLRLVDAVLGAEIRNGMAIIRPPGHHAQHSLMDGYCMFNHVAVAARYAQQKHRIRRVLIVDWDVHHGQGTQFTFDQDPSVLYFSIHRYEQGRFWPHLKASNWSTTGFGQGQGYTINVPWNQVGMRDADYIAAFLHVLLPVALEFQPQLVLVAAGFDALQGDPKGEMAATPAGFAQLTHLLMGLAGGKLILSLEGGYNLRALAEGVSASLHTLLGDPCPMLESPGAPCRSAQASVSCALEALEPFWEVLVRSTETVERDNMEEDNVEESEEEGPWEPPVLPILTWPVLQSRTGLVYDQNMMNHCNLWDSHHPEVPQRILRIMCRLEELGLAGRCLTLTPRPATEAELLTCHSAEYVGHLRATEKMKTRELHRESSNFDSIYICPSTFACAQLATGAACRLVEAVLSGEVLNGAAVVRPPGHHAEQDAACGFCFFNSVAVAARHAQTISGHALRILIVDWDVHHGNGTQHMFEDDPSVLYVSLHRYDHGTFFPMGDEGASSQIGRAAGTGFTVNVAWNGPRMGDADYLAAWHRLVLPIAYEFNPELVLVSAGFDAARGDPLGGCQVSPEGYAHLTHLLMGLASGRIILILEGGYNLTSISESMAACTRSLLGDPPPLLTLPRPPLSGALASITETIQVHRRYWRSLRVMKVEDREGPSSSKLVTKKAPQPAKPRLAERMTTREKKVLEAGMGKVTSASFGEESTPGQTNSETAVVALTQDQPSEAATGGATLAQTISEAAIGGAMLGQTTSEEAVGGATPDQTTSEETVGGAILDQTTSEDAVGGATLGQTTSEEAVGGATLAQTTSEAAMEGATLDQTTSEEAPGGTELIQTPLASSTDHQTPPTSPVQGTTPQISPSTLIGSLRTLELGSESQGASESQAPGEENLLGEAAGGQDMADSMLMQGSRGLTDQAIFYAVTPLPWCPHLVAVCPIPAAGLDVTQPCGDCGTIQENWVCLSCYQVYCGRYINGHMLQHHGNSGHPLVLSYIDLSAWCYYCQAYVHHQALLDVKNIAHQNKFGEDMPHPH
Nature of the experiment: Inhibition of recombinant human HDAC6 using RHK-K(Ac)-AMC as substrate by fluorescence based assay.
Conditions: not given
With `CC(C)c1cc(C(=O)N2Cc3ccc(NC(=O)CCCCCCCC(=O)NO)cc3C2)c(O)cc1O`, the half-maximal inhibitory concentration (IC50) amounted to 2.12 nM.

In the case of `CC(C)c1cc(C(=O)N2Cc3ccc(NC(=O)CCCCCCC(=O)NO)cc3C2)c(O)cc1O`, the IC50 came to 2.21 nM.

On to `CC(C)c1cc(C(=O)N2Cc3ccc(NC(=O)CCCCC(=O)NO)cc3C2)c(O)cc1O`, for which the IC50 was 330 nM.

With `CC(C)c1cc(C(=O)N2Cc3ccc(NC(=O)CCCCCC(=O)NO)cc3C2)c(O)cc1O`, the 50% inhibitory concentration (IC50) turned out to be 9.44 nM.

A further experiment has as its target T2, Histone deacetylase 8 (Homo sapiens, UniProt Q9BY41).
T2 sequence (Q9BY41 whole entry): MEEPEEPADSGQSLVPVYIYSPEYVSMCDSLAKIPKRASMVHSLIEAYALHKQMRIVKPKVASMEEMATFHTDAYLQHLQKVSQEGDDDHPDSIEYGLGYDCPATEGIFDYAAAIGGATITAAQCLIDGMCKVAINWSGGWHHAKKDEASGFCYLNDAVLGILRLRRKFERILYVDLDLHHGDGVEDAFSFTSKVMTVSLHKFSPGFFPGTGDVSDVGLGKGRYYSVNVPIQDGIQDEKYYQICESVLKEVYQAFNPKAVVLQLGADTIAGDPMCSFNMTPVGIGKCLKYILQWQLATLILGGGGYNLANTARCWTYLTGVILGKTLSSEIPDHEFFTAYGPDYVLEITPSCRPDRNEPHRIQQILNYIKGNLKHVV
Nature of the experiment: Inhibition of recombinant human HDAC8 using RHK-K(Ac)-AMC as substrate by fluorescence based assay.
Conditions: not given
For the compound `CC(C)c1cc(C(=O)N2Cc3ccc(NC(=O)CCCCCCCC(=O)NO)cc3C2)c(O)cc1O`, the half-inhibitory concentration (IC50) is more than 10000 nM.

Consider `CC(C)c1cc(C(=O)N2Cc3ccc(NC(=O)CCCCCCC(=O)NO)cc3C2)c(O)cc1O`, for which the IC50 worked out at 1510 nM.

For the compound `CC(C)c1cc(C(=O)N2Cc3ccc(NC(=O)CCCCC(=O)NO)cc3C2)c(O)cc1O`, the IC50 turned out to be 7420 nM.

With `CC(C)c1cc(C(=O)N2Cc3ccc(NC(=O)CCCCCC(=O)NO)cc3C2)c(O)cc1O`, the IC50 was 2010 nM.

For another experiment, the species on record is Homo sapiens. Nature of the experiment: Selectivity index, ratio of IC50 for recombinant human C-terminal FLAG-His-tagged HDAC1 (1 to 482 residues) expressed in Sf21 cells to IC50 for recombinant human HDAC6.
Conditions: not given
Regarding `CC(C)c1cc(C(=O)N2Cc3ccc(NC(=O)CCCCCCCC(=O)NO)cc3C2)c(O)cc1O`, the Ratio IC50 turned out to be 507.

On to `CC(C)c1cc(C(=O)N2Cc3ccc(NC(=O)CCCCCCC(=O)NO)cc3C2)c(O)cc1O`, for which the Ratio IC50 amounted to 250.

As for `CC(C)c1cc(C(=O)N2Cc3ccc(NC(=O)CCCCC(=O)NO)cc3C2)c(O)cc1O`, the Ratio IC50 came out at 20.8.

As for `CC(C)c1cc(C(=O)N2Cc3ccc(NC(=O)CCCCCC(=O)NO)cc3C2)c(O)cc1O`, the Ratio IC50 stood at 404.

The next experiment is filed under the species Homo sapiens. Nature of the experiment: Selectivity index, ratio of IC50 for recombinant human HDAC3 to IC50 for recombinant human HDAC6.
Conditions: not given
In the case of `CC(C)c1cc(C(=O)N2Cc3ccc(NC(=O)CCCCCCCC(=O)NO)cc3C2)c(O)cc1O`, the Ratio IC50 was 233.

With `CC(C)c1cc(C(=O)N2Cc3ccc(NC(=O)CCCCCCC(=O)NO)cc3C2)c(O)cc1O`, the Ratio IC50 turned out to be 175.

`CC(C)c1cc(C(=O)N2Cc3ccc(NC(=O)CCCCC(=O)NO)cc3C2)c(O)cc1O`: the Ratio IC50 was 8.5.

Take `CC(C)c1cc(C(=O)N2Cc3ccc(NC(=O)CCCCCC(=O)NO)cc3C2)c(O)cc1O`: the Ratio IC50 came to 234.

A further experiment is filed under the species Homo sapiens. Nature of the experiment: Selectivity index, ratio of IC50 for recombinant human HDAC8 to IC50 for recombinant human HDAC6.
Conditions: not given
Regarding `CC(C)c1cc(C(=O)N2Cc3ccc(NC(=O)CCCCCCCC(=O)NO)cc3C2)c(O)cc1O`, the Ratio IC50 is more than 4720.

As for `CC(C)c1cc(C(=O)N2Cc3ccc(NC(=O)CCCCCCC(=O)NO)cc3C2)c(O)cc1O`, the Ratio IC50 is 683.

As to `CC(C)c1cc(C(=O)N2Cc3ccc(NC(=O)CCCCC(=O)NO)cc3C2)c(O)cc1O`, the Ratio IC50 came to 22.5.

Turning to `CC(C)c1cc(C(=O)N2Cc3ccc(NC(=O)CCCCCC(=O)NO)cc3C2)c(O)cc1O`, the Ratio IC50 turned out to be 213.
